Laboratory results published in ChEMBL document CHEMBL3352096, “New 9,19-cycloartenol glycosides isolated from the roots of Cimicifuga simplex and their anti-inflammatory effects” (Bioorg Med Chem Lett, 2014).
Calls of active or inactive are those of the source.

What was measured:
Assay type in all cases: functional, cell-based
RAW [1] = test: Antiinflammatory activity against mouse RAW cells assessed as inhibition of LPS-induced IL-6 production at 10 uM by Q-PCR analysis
RAW [2] = test: Antiinflammatory activity against mouse RAW cells assessed as inhibition of LPS-induced IL-23 production at 10 uM by Q-PCR analysis
RAW [3] = test: Antiinflammatory activity against mouse RAW cells assessed as inhibition of LPS-induced TNFalpha production at 10 uM by Q-PCR analysis

Measured: inhibition

CC(=O)O[C@@H]1C[C@@]23C[C@@]24CC[C@H](O[C@@H]2O[C@H](CO)[C@H](O)[C@H](O)[C@H]2O)C(C)(C)[C@@H]4CC[C@H]3[C@]2(C)C[C@]3(O)O[C@H](C(=O)[C@@H]4OC4(C)C)[C@@H](C)[C@@H]3[C@@]12C
active: all assays above

CC(=O)O[C@@H]1C[C@@]23C[C@@]24CC[C@H](O[C@@H]2OC[C@@H](O)[C@H](O)[C@H]2O)C(C)(C)[C@@H]4CC=C3[C@]2(C)C[C@]3(O)O[C@H](C(=O)[C@@H]4OC4(C)C)[C@@H](C)[C@@H]3[C@@]12C
active: all assays above
